Data from publication PMC5995653 (Journal of pharmacological and toxicological methods, 2018).
Like-named read-outs stand apart in the source and are kept apart here.

What was measured:
[1] = target: T1, hSERT (Homo sapiens, UniProt P31645); assay: SERT reuptake inhibition in transfected hSERT-HEK293 cells; type: cell-based; details: unpublished results of the authors' group
[2] = target: T1, hSERT; details: read-out: Reuptake inhibition activity IC50, hSERT, JAR cells
[3] = target: T1, hSERT; details: read-out: Reuptake inhibition activity IC50, hSERT-HEK293 cells; cited from earlier work
[4] = target: rSERT (Rattus norvegicus, UniProt P31652); details: read-out: Ki, rSERT, synaptosomes; cited from earlier work
rSERT, sequence (P31652 whole entry): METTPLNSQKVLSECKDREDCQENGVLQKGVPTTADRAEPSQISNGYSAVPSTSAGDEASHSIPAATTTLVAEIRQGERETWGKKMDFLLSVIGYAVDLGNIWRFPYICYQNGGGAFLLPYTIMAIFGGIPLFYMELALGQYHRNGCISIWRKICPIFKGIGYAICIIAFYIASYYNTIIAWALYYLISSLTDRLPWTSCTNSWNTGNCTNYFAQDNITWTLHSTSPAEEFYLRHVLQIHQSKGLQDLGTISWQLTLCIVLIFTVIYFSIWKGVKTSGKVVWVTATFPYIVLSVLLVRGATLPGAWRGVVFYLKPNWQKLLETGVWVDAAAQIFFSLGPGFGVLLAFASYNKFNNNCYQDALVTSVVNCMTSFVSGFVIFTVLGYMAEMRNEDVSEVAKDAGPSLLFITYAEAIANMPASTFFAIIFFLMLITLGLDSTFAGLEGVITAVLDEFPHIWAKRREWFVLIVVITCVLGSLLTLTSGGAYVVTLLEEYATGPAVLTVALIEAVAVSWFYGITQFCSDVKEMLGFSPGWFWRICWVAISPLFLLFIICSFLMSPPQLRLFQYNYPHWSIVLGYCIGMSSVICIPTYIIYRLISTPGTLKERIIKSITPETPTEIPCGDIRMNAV

T1 sequence (P31645 whole entry): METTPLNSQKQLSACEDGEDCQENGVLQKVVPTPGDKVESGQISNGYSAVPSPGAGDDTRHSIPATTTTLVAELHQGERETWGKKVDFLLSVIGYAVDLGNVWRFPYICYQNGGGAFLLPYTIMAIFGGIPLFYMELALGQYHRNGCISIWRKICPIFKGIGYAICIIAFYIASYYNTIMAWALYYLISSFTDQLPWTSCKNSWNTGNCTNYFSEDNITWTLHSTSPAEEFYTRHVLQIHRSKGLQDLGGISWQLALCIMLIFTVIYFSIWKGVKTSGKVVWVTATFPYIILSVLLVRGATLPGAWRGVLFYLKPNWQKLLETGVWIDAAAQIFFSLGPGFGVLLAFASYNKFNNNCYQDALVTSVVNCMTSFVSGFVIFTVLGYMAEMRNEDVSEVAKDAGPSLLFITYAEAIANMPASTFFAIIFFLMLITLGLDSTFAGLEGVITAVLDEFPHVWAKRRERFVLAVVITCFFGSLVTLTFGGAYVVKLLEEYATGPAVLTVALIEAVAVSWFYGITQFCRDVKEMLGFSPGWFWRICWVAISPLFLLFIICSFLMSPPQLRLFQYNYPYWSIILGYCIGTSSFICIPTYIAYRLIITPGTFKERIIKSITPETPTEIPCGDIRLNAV

SMILES: Fc1ccc(C(OCCN2CCN(CCCc3ccccc3)CC2)c2ccc(F)cc2)cc1 [GBR12909]
- Activity in hSERT-HEK293 cells (in words) [1]: inactive

SMILES: COC(=O)[C@H]1C(c2ccc(I)cc2)C[C@@H]2CC[C@H]1N2C (stereo partly drawn) [RTI-55]
- IC50 [2]: 1.31 ± 0.1 nM
- IC50 [3]: 0.51 ± 0.14 nM
- Ki [4]: 1 nM

SMILES: CN1[C@H]2CC[C@@H]1[C@@H](C(=O)N1CCCC1)[C@@H](c1ccc(I)cc1)C2 [RTI-229]
- IC50 [2]: 589 ± 42 nM
- Ki [4]: 362 nM
